{"source": "PubChem BioAssay (NCI)", "experiment_in_all_cases": "NCI anticancer screen, dose series, 384-well format", "key": {"[1]": {"system": "ACHN renal"}, "[2]": {"system": "CAKI-1 renal"}, "[3]": {"system": "HOP-62 NSCLC"}, "[4]": {"system": "K-562 leukemia"}, "[5]": {"system": "MCF7 breast"}, "[6]": {"system": "MDA-MB-435 melanoma"}, "[7]": {"system": "NCI-H226 lung"}, "[8]": {"system": "NCI-H23 lung"}, "[9]": {"system": "NCI-H460 NSCLC"}, "[10]": {"system": "SF-539 CNS"}, "[11]": {"system": "SK-MEL-5 melanoma"}, "[12]": {"system": "SK-OV-3 ovarian"}, "[13]": {"system": "U251 glioblastoma"}}, "note": "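At the GI50, growth is halved. TGI: concentration producing complete growth inhibition.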"}
{"smiles": "O=c1[nH]nc2c3c(cccc13)NC(CN1Cc3ccccc3C1)=N2", "values": [{"measurement": "GI50", "setting": "[1]", "result": 5.5, "unit": "µM"}, {"measurement": "TGI", "setting": "[1]", "result": "> 78.1", "unit": "µM"}, {"measurement": "GI50", "setting": "[2]", "result": 2.03, "unit": "µM"}, {"measurement": "TGI", "setting": "[2]", "result": "> 100", "unit": "µM"}, {"measurement": "GI50", "setting": "[3]", "result": 4.06, "unit": "µM"}, {"measurement": "TGI", "setting": "[3]", "result": "> 100", "unit": "µM"}, {"measurement": "GI50", "setting": "[4]", "result": 7.51, "unit": "µM"}, {"measurement": "TGI", "setting": "[4]", "result": "> 100", "unit": "µM"}, {"measurement": "GI50", "setting": "[5]", "result": 7.24, "unit": "µM"}, {"measurement": "TGI", "setting": "[5]", "result": "> 100", "unit": "µM"}, {"measurement": "GI50", "setting": "[6]", "result": 3.74, "unit": "µM"}, {"measurement": "TGI", "setting": "[6]", "result": 15.6, "unit": "µM"}, {"measurement": "GI50", "setting": "[7]", "result": 3.21, "unit": "µM"}, {"measurement": "TGI", "setting": "[7]", "result": 52, "unit": "µM"}, {"measurement": "GI50", "setting": "[8]", "result": 2.27, "unit": "µM"}, {"measurement": "TGI", "setting": "[8]", "result": 15.3, "unit": "µM"}, {"measurement": "GI50", "setting": "[9]", "result": 5.18, "unit": "µM"}, {"measurement": "TGI", "setting": "[9]", "result": "> 71.8", "unit": "µM"}, {"measurement": "GI50", "setting": "[10]", "result": 20.9, "unit": "µM"}, {"measurement": "TGI", "setting": "[10]", "result": "> 100", "unit": "µM"}, {"measurement": "GI50", "setting": "[11]", "result": 3.42, "unit": "µM"}, {"measurement": "TGI", "setting": "[11]", "result": "> 56.2", "unit": "µM"}, {"measurement": "GI50", "setting": "[12]", "result": 3.49, "unit": "µM"}, {"measurement": "TGI", "setting": "[12]", "result": "> 62.2", "unit": "µM"}, {"measurement": "GI50", "setting": "[13]", "result": 7.61, "unit": "µM"}, {"measurement": "TGI", "setting": "[13]", "result": "> 100", "unit": "µM"}]}
